The results in this text go back to patent US8715714B2, “Uses of rare earth elements for hair improvement” (Micellbio Co., Ltd., priority 2006, dated 2014).

Holding throughout (format): cell-based
For assay [1], the target named is T1, tyrosinase (Mus musculus, UniProt P11344).
T1 sequence (P11344 19-533): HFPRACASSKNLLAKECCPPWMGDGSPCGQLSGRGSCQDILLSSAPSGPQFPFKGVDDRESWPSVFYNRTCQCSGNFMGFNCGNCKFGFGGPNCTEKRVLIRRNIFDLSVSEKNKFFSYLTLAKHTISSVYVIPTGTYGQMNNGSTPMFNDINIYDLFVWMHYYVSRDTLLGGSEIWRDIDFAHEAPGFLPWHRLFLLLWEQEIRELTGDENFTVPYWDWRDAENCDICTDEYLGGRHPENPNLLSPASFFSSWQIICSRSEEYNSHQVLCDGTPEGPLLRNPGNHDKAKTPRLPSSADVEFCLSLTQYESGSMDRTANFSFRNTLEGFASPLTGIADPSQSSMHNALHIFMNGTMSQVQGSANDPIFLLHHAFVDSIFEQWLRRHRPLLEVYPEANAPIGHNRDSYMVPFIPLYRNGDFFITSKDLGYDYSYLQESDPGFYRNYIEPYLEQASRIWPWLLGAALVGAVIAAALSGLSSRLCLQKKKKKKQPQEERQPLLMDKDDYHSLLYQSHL
Nature of the assay: Activity of tyrosinase in B16F10 cells. Conditions: 10 μg to 1 pg, versus control group, FIG. 8. As to the method: (§1) In order to evaluate the effect of promoting black hair formation, the activity of tyrosinase was measured in Sk-mel-31, a human melanoma cell, and B16F10, a mouse melanoma cell. The cells were cultivated in an incubator at 37° C. (5% CO2 and 60% relative humidity) while maintaining a density of 1×10^6 cells/ml for Sk-mel-31 and 2×10^5 cells/ml for B16F10 in RPMI-1640 medium (containing 1% penicillin-streptomycin and 10% fetal bovine serum). The cells were stabilized in the incubator for 24 hours, and the culture medium containing FBS was replaced by FBS-free RPMI-1640. The cells were treated with mixed rare earth elements of 10 μg, 1 μg, 100 ng, 10 ng, 1 ng, 100 pg, […] and 1 pg, respectively, and individual rare earth elements of 10 ng. In order to measure the activity of tyrosinase, the cells were cultivated for a given time, centrifuged (100×g) for 10 minutes, and harvested. […] The cells were placed in an ice bath for one hour, and centrifuged with 40,000×g at 4° C. for 20 minutes to obtain a cell extract. 130 μl of 5 mM L-DOPA (L-3,4-dihydroxyphenylalanine) and 120 μl of 25 mM MBTH (3-methyl-2-benzothiazolinone hydrazone) were added to 250 μl of an analysis buffer containing 100 mM potassium phosphate (pH 7.1), 4% N,N-dimethylformamide and 0.1% (v/v) Triton X-100, and reacted in a thermostat at 37° C. for 5 minutes, and then, 100 μg of the cell extract was added thereto, and further reacted for 2 hours. Then, 500 μl of 1 M perchloric acid was added thereto and the mixture was centrifuged with 9,000×g at room temperature for 20 minutes. Then, the supernatant was taken and absorbance was measured at 505 nm.

For assay [2], the system named is tyrosinase. Nature of the assay: Expression of tyrosinase in Sk-mel-31 cells by Western blotting. Conditions: human melanoma cell line; versus control group; FIG. 9. The method, then:
(§2) Cells were cultivated according to the same process as in Experimental Example 6, and centrifuged (100×g) for 10 minutes to harvest the cells. In order to measure the expression of tyrosinase by Western blotting, 100 μg of the cell extract was resolved on 10% SDS-PAGE, transferred to NC, and then, blocked with TBS containing 5% skim milk. Then, it was reacted with a primary antibody diluted to 1:2,500 (monoclonal anti-tyrosine hydroxylase clone Th-2) and a secondary antibody diluted to 1:5,000 (anti-mouse IgG), respectively, and washed with TBS containing 0.2% Tween-20, and then, photosensitized on an X-ray film using an ECL detection kit. Then, OD values were graphed using an image analysis program of LabWork™ (version 4.4.00.0).

The test system of assay [3] is B16F10, a mouse melanoma cell. Description: Melanin production in B16F10 cells. The note with it: mouse melanoma cell line; versus control group; FIG. 10. The method, then:
(§3) Cells were cultivated according to the same process as in Experimental Example 6, and centrifuged (100×g) for 10 minutes to harvest the cells. In order to measure the production of melanin, 200 μg of the cell extract was added to 1 N NaOH (total 1 ml), allowed to stand at room temperature for 30 minutes, and then, absorbance was measured at 400 nm.
(§4) In order to measure the production of melanin, the cells were cultivated and harvested according to the same process as that of Experimental Example 6, and the production of melanin was measured according to the same process as that of Experimental Example 8.

In assay [4] the target is T2, tyrosinase (Homo sapiens, UniProt P14679).
T2 sequence (P14679 19-529): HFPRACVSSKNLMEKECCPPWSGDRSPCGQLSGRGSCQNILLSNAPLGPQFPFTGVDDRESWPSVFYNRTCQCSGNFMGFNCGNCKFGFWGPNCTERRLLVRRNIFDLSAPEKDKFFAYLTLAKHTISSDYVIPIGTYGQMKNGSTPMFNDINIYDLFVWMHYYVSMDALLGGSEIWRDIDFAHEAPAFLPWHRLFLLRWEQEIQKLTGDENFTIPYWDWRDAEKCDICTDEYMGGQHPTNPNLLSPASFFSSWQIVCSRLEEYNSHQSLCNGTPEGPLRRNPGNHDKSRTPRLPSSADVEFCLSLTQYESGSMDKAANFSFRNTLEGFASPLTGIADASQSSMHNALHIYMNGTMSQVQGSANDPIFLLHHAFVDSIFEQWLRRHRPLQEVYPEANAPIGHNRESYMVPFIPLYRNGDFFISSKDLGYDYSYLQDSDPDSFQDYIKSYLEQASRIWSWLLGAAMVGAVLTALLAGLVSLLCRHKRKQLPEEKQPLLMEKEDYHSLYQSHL
Nature of the assay: Activity of tyrosinase in Sk-mel-31 cells. Conditions: 10 μg to 1 pg, versus control group, FIG. 7. The method, then:
as §1

The test system of assay [5] is Mouse embryo fibroblasts NIH 3T3. Description: MTT cell proliferation assay in NIH 3T3 fibroblasts. As to the method: Mouse embryo fibroblasts NIH 3T3 were cultivated in an incubator at 37° C. ([…], 5% CO2 and 60% humidity) while maintaining a density of 2×10^6 or 4×10^6 cells/ml in Dulbecco's modified Eagle's media (DMEM) supplemented with 10% fetal bovine serum (FBS) and 1% penicillin-streptomycin. Cell proliferation was measured by using MTT [3-(3,5-dimethyl-thiazol-2-yl)-2,5-diphenyltetrazolium bromide] assay. For MTT assay, the cells were plated in a 96-well plate at 2×10^3 cells/ml per well, and treated with a culture medium supplemented with 10% FBS. The cells were stabilized in the incubator for 24 hours, the culture medium supplemented with FBS was replaced by FBS-free DMEM, and the cells were treated with mixed rare earth elements of 10 μg, 1 μg, 100 ng, 10 ng, 1 ng, 100 pg, 10 pg and 1 pg, respectively, and individual rare earth elements of 10 ng. Then, the cells were cultivated for a given time, 50 μl per well of MTT (2 mg/l ml sterilized distilled water) was added thereto, and the mixture was reacted for 4 hours. The reaction mixture was treated with DMSO (dimethyl sulfoxide) and shaken for 30 minutes. Absorbance was measured at 540 nm using an ELISA reader (550, Bio-rad).

For assay [6], the system named is tyrosinase. Description: Expression of tyrosinase in B16F10 cells by Western blotting. The note with it: mouse melanoma cell line; versus control group; FIG. 9. As to the method:
as §2

The subject of assay [7] is Sk-mel-31, a human melanoma cell. Nature of the assay: Melanin production in Sk-mel-31 cells. The note with it: human melanoma cell line; versus control group; FIG. 10. As to the method: as §3, §4

“Also recorded” adds a separate entry of the source.

Regarding `[Ce]` [Ce, cerium], the tyrosinase activity entry at tyrosinase [1] and on tyrosinase [4] was “increased; also recorded: substantially the same effect as mixed rare earth elements; also recorded: most greatly increased” throughout. For the same compound, in the assay with tyrosinase [2], the expression of tyrosinase entry is recorded as “substantially the same effect; also recorded: most greatly increased”. Also, the melanin production result in assay [3] is given as “substantially the same effect; also recorded: most greatly increased”. In addition, the “cell proliferation compared with the non-treated group” value is reported as “increased” in assay [5] (10 μg to 1 pg, FIG. 1); “up to 1.69 times” in assay [5] (10 μg to 1 pg, FIG. 1, maximum); “most greatly increased” in assay [5] (each element of 10 ng, FIG. 2).

In the case of `[Eu]` [Eu, europium], the tyrosinase activity entry at tyrosinase [1] and at tyrosinase [4] was “increased; also recorded: substantially the same effect as mixed rare earth elements” throughout. Also, the expression of tyrosinase entry with tyrosinase [6] and with tyrosinase [2] was “substantially the same effect” in each case. Besides, the melanin production entry in assay [3] and in assay [7] was “substantially the same effect” in each case. Further, the “cell proliferation compared with the non-treated group” value in assay [5] (10 μg to 1 pg, FIG. 1) is recorded as “increased”.

As to `[Gd]` [Gd, gadolinium], the tyrosinase activity result on tyrosinase [1] and at tyrosinase [4] was “increased; also recorded: relatively lower effect” each time. Moreover, the expression of tyrosinase result in the assay with tyrosinase [6] and in the assay on tyrosinase [2] was “relatively lower effect” throughout. Further, the melanin production entry in assay [3] and in assay [7] was “relatively lower effect” in each case. Further, the “cell proliferation compared with the non-treated group” value in assay [5] (10 μg to 1 pg, FIG. 1) was “increased”; in assay [5] (each element of 10 ng, FIG. 2), “relatively inferior effect”.

With `[La]` [La, lanthanum], the tyrosinase activity entry on tyrosinase [1] and at tyrosinase [4] was “increased; also recorded: relatively lower effect” each time. Also, the expression of tyrosinase entry in the assay on tyrosinase [6] and in the assay with tyrosinase [2] was “relatively lower effect” throughout. The melanin production result in assay [3] and in assay [7] was “relatively lower effect” in each case. The “cell proliferation compared with the non-treated group” value in assay [5] (10 μg to 1 pg, FIG. 1) was “increased”; in assay [5] (each element of 10 ng, FIG. 2) it was “relatively inferior effect”.

Consider `[Lu]` [Lu, lutetium], for which the tyrosinase activity entry at tyrosinase [1] and on tyrosinase [4] was “relatively lower effect” in each case. Further, the expression of tyrosinase result in the assay on tyrosinase [6] and in the assay with tyrosinase [2] was “relatively lower effect” throughout. Besides, the melanin production entry in assay [3] and in assay [7] was “relatively lower effect” in each case. The “cell proliferation compared with the non-treated group” value in assay [5] (each element of 10 ng, FIG. 2) is “relatively inferior effect”.

In the case of `[Nd]` [Nd, neodymium], the tyrosinase activity result on tyrosinase [1] and at tyrosinase [4] was “relatively lower effect” each time. Besides, the expression of tyrosinase entry in the assay with tyrosinase [6] and in the assay with tyrosinase [2] was “relatively lower effect” in each case. Moreover, the melanin production result in assay [3] and in assay [7] was “relatively lower effect” throughout. The “cell proliferation compared with the non-treated group” value in assay [5] (each element of 10 ng, FIG. 2) was “relatively inferior effect”.

As for `[Sm]` [Sm, samarium], the tyrosinase activity entry at tyrosinase [1] and on tyrosinase [4] was “relatively lower effect” in each case. For the same compound, the expression of tyrosinase result in the assay on tyrosinase [6] and with tyrosinase [2] was “relatively lower effect” in each case. Moreover, the melanin production entry in assay [3] and in assay [7] was “relatively lower effect” each time. For the same compound, in assay [5] (each element of 10 ng, FIG. 2), the “cell proliferation compared with the non-treated group” value is listed as “relatively inferior effect”.
